Series [1] in a line: Aerobic stability of inoculated high moisture corn silage (1999 HMC field trials, PVC silos). How it is done:
High moisture corn was harvested by combine at 22 to 28% moisture. Harvested grain was processed with a roller mill with rollers set at a gap width of approximately 3 mm.
Inoculants were formulated to deliver the appropriate rate as give in Table 2. A 30 cc syringe fitted with a 16-gauge needle was used to apply the inoculants to the forage at a rate of 1 ml/lb. The inoculants were mixed with the forage by rolling on clean plastic.
For each treatment two 4″×14″ PVC silos with air infusion holes near the top and bottom of the silo were filled with 2.5 kg of forage. Experimental silos were fitted with rubber quick caps at each end, the top having a bunsen valve to allow gas to escape. The silos were then kept in an environmentally controlled room until opening.
Two pre-ensiled forage samples were taken while filling during each trial for pH and microbial analysis. Lactic acid bacteria (LAB) were enumerated on modified DeMann-Rogosa-Sharpe (MRS) agar and yeasts and molds on Sabouraud Dextrose agar. Dry matter (DM) was determined by drying to a constant weight for 72 hours at 55° C. in a forced air oven. Inoculum was plated on modified MRS agar. Silos were opened after approximately 60 days, emptied and mixed. Samples were taken for pH, DM, digestibility, and aerobic stability analyses.
Aerobic stabilty was determined by placing 500 g of silage into a plastic tub with holes in the lid and bottom, placing a temperature probe in the center of the silage mass and placing the tub into a styrofoam cooler (Honig, Das Wirtschaftseigene Futter (1975) 21:25-32). The coolers were then kept in a temperature-controlled room where the ambient temperature and silage temperature were recorded by a datalogger every three hours for one week. DM was determined as per the pre-ensiled samples. Dried samples from the DM determination were ground through a 4 mm Wiley Mill screen and scanned by near infrared spectroscopy (NIRS).

Series [2] can be described thus: Aerobic stability of inoculated whole plant corn silage (WPCS fall field trials, PVC silos). The method, then: Whole plant corn forage was harvested at approximately 2/3 milk line with a 2-row pull type forage chopper. Theoretical chop length was […].
A 30 cc syringe fitted with a 16-gauge needle was used to apply the inoculants to the forage at a rate of 1 ml/lb. The inoculants were mixed with the forage by rolling on clean plastic.
For each treatment two 4″×14″ PVC silos with air infusion holes near the top and bottom of the silo were filed with 1123 g, 1173 g, 1271 g, 1144 g, 1459 g, 1278 g, 1207 g and 1097 g of forage. Experimental silos were fitted with rubber quick caps at each end, the top having a bunsen valve to allow gas to escape. The silos were then weighed for dry matter recovery. After filing, the silos were kept in an environmentally controlled room until opening and air infused for 24 hours on day 28.
Three pre-ensiled forage samples were taken while filling during each trial for pH and microbial analysis. Lactic acid bacteria (LAB) were enumerated on modified MRS agar and yeasts and molds on Sabouraud Dextrose agar. Dry matter was determined by drying to a constant weight for 72 hours at 55° C. in a forced air oven. Inoculum was plated on modified MRS agar. Silos were opened after 50 days emptied and mixed. Samples were taken for pH, DM and aerobic stability analyses.
Aerobic stability was determined by placing 100 g of dry matter of silage into a plastic tub with holes in the lid and bottom, placing a temperature probe in the center of the silage mass and placing the tub into a styrofoam cooler (Honig, Das Wirtschaftseigene Futter (1975) 21:25-32). The coolers were then kept in a temperature-controlled room where the ambient temperature and silage temperature were recorded by a datalogger every three hours for one week. DM was determined as per the pre-ensiled samples. Frozen samples of selected samples were submitted for VFA analysis according to standard protocols.

Turning to `CCC(=O)O` [PROP, Propionic acid], the “improvement of aerobic stability” value in series [1] came to 94 h. Besides, the “improvement of aerobic stability (in words)” value in series [1] is “effective in all trials”. In addition, the Loss in series [1] (number of HMC field trials with 24 hour decrease in stability compared to control) is 0; in series [2] (number of WPCS trials (of 8) with 24 hour decrease in stability compared to control), 2. For the same molecule, the Win was 8 in series [1] (number of HMC field trials with 24 hour increase in stability compared to control) and 3 in series [2] (number of WPCS trials (of 8) with 24 hour increase in stability compared to control). In addition, the “No Difference” value in series [1] (number of HMC field trials with no difference from control) is listed as 0. The “No Effect” value in series [2] (number of WPCS trials (of 8) with no effect) stood at 3.
